The record followed here is ChEMBL document CHEMBL4393671, “Design of a Cyclin G Associated Kinase (GAK)/Epidermal Growth Factor Receptor (EGFR) Inhibitor Set to Interrogate the Relationship of EGFR and GAK in Chordoma” (J Med Chem, 2019).

Structures are written as SMILES.

The nature of experiment [1]: cells. It is filed as ADME, cell-based. To be noted: Homo sapiens, WS1, 72 h.
Description: Cytotoxicity against human WS1 cells measured after 72 hrs by alamar blue assay
A short description of experiment [2]: cells. It is filed as functional, cell-based. The conditions noted are these: Homo sapiens, UCH2, 72 h.
Description: Antiproliferative activity against human UCH2 cells measured after 72 hrs by alamar blue assay
Experiment [3] has as its target T1, Cyclin-G-associated kinase (Homo sapiens) (UniProt O14976).
T1 sequence (whole entry): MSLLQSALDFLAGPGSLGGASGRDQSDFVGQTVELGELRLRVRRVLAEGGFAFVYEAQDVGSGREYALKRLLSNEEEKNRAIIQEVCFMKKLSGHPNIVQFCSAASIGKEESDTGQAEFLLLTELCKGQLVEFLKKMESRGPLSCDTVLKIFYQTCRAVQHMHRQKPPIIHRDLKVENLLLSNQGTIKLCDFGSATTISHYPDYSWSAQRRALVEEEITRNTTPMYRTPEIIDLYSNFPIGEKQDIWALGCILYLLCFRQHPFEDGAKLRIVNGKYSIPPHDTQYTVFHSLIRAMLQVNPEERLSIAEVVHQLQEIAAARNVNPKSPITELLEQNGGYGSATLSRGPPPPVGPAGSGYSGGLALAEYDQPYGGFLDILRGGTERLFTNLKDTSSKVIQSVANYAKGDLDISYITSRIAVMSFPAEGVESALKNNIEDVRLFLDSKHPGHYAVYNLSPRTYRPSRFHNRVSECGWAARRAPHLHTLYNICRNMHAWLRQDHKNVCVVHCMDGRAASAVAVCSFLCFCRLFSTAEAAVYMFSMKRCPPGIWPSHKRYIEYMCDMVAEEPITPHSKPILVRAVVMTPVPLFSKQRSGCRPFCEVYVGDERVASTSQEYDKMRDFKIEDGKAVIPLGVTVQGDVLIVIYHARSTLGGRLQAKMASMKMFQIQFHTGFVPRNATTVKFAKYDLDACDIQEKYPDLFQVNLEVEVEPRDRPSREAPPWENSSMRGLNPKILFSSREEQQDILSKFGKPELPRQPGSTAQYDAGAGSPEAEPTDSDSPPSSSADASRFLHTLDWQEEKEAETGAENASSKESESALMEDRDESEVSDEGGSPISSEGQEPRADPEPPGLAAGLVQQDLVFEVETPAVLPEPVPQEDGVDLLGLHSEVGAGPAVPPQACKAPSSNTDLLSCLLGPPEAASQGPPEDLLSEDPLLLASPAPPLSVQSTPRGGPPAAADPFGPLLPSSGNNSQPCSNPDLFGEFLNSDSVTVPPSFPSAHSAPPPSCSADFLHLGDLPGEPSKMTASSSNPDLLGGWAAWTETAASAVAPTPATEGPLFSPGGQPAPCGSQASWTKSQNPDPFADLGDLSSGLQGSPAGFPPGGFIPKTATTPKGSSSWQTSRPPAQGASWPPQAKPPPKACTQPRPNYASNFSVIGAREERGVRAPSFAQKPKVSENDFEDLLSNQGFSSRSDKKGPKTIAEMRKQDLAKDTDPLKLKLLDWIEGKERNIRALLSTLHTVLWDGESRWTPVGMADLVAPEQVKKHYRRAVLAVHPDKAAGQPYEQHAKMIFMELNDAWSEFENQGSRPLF
Briefly: Inhibition of tracer 5 binding to human N-terminal nano luciferase-fused GAK expressed in HEK293 cells at 5 uM measured after 2 hrs by nanoBRET assay relative to control. It is filed as cell-based.

Experiment [4] has as its target T2, Epidermal growth factor receptor (Homo sapiens, UniProt P00533). It is filed as cell-based.
Description: Inhibition of EGFR in human A431 cells assessed as reduction in EGF-stimulated EGFR autophosphorylation preincuabted for 90 mins followed by EGF-stimulation by sandwich-ELISA
The nature of experiment [5]: cells. The experiment is classed as functional, cell-based. The conditions noted are these: Homo sapiens, UCH1, 72 h.
Description: Antiproliferative activity against human UCH1 cells measured after 72 hrs by alamar blue assay
In experiment [6] the target is T2, Epidermal growth factor receptor.
Description: Binding affinity to wild-type human partial length EGFR (R669 to V1011 residues) expressed in bacterial expression system by Kinomescan method
Experiment [7] deals with T3, Cyclin-G-associated kinase (Homo sapiens, UniProt O14976).
T3 sequence (O14976 whole entry): T1 sequence (whole entry)
As to the kind of experiment: Binding affinity to wild-type human partial length GAK (G13 to Y338 residues) expressed in bacterial expression system by Kinomescan method.

Experiment [8] in a line: cells. To be noted: Homo sapiens, 72 h. It is filed as functional, cell-based.
Description: Antiproliferative activity against human UCH12 cells measured after 72 hrs by alamar blue assay
Experiment [9] can be described thus: cells. It is filed as functional, cell-based. To be noted: Homo sapiens, 72 h. The source holds these as a separate data set.
Description: Antiproliferative activity against human UMCHOR1 cells measured after 72 hrs by alamar blue assay
Experiment [10] in a line: cells. It is filed as functional, cell-based. To be noted: Homo sapiens, 72 h. The source holds these as a separate data set.
Description: Antiproliferative activity against human UCH14 cells measured after 72 hrs by alamar blue assay
Experiment [11] can be described thus: cells. The conditions noted are these: Homo sapiens, 72 h. It is filed as functional, cell-based. The source holds these as a separate data set.
Description: Antiproliferative activity against human UCH7 cells measured after 72 hrs by alamar blue assay
Experiment [12] deals with T3, Cyclin-G-associated kinase. As to the kind of experiment: Inhibition of tracer 5 binding to human N-terminal nano luciferase-fused GAK expressed in HEK293 cells measured after 2 hrs by nanoBRET assay. It is filed as cell-based.
A short description of experiment [13]: cells. It is filed as functional, cell-based. The conditions noted are these: Homo sapiens, 72 h. The source holds these as a separate data set.
Description: Antiproliferative activity against human CH22 cells measured after 72 hrs by alamar blue assay
The target of experiment [14] is T2, Epidermal growth factor receptor. As to the kind of experiment: Binding affinity to wild-type human partial length EGFR (R669 to V1011 residues) expressed in bacterial expression system at 1 uM by Kinomescan method relative to control.

T2 sequence (P00533 whole entry): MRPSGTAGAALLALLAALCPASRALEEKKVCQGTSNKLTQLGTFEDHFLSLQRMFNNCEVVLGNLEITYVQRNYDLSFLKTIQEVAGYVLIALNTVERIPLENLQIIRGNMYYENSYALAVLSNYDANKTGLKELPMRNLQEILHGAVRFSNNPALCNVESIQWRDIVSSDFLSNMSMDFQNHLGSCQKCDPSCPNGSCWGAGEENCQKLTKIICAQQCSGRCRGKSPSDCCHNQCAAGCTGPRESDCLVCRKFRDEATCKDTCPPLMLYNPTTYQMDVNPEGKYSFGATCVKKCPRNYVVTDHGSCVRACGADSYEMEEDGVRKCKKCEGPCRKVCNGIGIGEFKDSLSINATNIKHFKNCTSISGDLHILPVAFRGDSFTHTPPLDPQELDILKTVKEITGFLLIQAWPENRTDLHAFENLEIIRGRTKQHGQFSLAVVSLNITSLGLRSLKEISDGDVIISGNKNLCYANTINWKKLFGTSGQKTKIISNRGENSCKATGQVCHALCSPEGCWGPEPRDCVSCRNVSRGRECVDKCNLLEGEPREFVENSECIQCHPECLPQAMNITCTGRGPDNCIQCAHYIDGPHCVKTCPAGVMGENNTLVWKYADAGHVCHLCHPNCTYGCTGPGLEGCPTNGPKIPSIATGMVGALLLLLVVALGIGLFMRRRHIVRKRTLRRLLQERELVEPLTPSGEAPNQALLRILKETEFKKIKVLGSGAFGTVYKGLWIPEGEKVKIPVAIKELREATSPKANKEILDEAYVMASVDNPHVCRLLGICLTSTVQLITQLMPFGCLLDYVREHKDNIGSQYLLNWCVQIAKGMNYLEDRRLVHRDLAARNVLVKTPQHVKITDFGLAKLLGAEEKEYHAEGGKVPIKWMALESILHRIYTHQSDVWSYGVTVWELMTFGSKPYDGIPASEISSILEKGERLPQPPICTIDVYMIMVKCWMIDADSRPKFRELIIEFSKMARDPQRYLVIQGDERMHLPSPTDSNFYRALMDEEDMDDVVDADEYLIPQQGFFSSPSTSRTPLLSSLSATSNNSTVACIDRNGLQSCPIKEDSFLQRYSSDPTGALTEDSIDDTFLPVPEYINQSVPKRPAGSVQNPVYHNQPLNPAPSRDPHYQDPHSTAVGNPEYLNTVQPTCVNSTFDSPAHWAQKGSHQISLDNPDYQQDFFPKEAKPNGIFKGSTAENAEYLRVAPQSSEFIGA

Take `COc1cc(N(C)c2ccnc3ccc(C(F)(F)F)cc23)cc(OC)c1OC`: the IC50 in the experiment “cells [1]” is more than 50 µM; in the experiment “cells [2]” it was more than 50 µM; in experiment [4], 2.2 µM; in the experiment “cells [5]”, more than 50 µM. In addition, the inhibition in experiment [3] was 7%.
On to `CN1CCN(CCOc2cc(OC3CCOCC3)c3c(Nc4c(Cl)ccc5c4OCO5)ncnc3c2)CC1` [SARACATINIB], for which the IC50 in “cells [2]” is 28 µM; in the experiment “cells [5]”, 4.3 µM.
With `COc1cc(Nc2ncnc3ccc(C(F)(F)F)cc23)cc(OC)c1OC`, the results for the Kd in [6] and in [7] were 6.1 µM and 0.19 µM, respectively. Also, the IC50 in “cells [1]” was 45 µM; in the experiment “cells [2]” it was more than 50 µM; in experiment [4], more than 50 µM; in “cells [5]”, 50 µM. In [3], this compound yielded an inhibition of 60%.
For the compound `COc1cc2nccc(Nc3cc(OC)c(OC)c(OC)c3)c2cc1OC`, the Kd in experiment [6] turned out to be 0.41 µM. The IC50 in “cells [8]” was 33 µM; in the experiment “cells [1]”, 14 µM; in “cells [9]”, 24 µM; in the experiment “cells [2]”, 25 µM; in the experiment “cells [10]” it was 19 µM; in “cells [11]” it was 30 µM. For the same compound, the IC50 came out at 0.023 µM in experiment [12], 27 µM in experiment [4], 12 µM in “cells [13]” and 11 µM in the experiment “cells [5]”.
Take `C#Cc1cccc(Nc2ccnc3cc(OCCOC)c(OCCOC)cc23)c1`: the Kd stood at 0.39 µM in experiment [6] and 1.2 µM in experiment [7]. Moreover, the IC50 in “cells [1]” turned out to be 12 µM; in “cells [2]”, 16 µM; in experiment [4] it was 0.34 µM; in the experiment “cells [5]”, 7.6 µM.
Consider `COc1cc(Nc2cc(C)nc3ccc(C(F)(F)F)cc23)cc(OC)c1OC`, for which the IC50 in the experiment “cells [1]” was 49 µM; in “cells [2]”, more than 50 µM; in experiment [4], more than 50 µM; in the experiment “cells [5]”, 37 µM. Also, in [3], the inhibition is 0%.
With `COc1cc2ncc(C#N)c(Nc3cccc(Br)c3)c2cc1OC`, the Kd in experiment [6] is 0.0024 µM; in experiment [7], 0.012 µM. In addition, the IC50 in the experiment “cells [1]” is 14 µM; in the experiment “cells [2]”, more than 50 µM; in experiment [12], 0.13 µM; in experiment [4], 0.09 µM; in “cells [5]”, 8.8 µM.
Turning to `COc1cc(Nc2ccnc3ccc(Br)cc23)cc(OC)c1OC`, the half-inhibitory concentration (IC50) in “cells [1]” was 11 µM; in the experiment “cells [2]”, more than 50 µM; in experiment [4] it was more than 50 µM; in “cells [5]”, more than 50 µM. In addition, in experiment [14], the Activity is less than 50%.
As to `COc1cc2ncc(C#N)c(Nc3cc(OC)c(OC)c(OC)c3)c2cc1OC`, the Kd in [6] was 0.0074 µM; in [7] it was 0.00042 µM. Further, the IC50 in the experiment “cells [1]” was more than 50 µM; in the experiment “cells [2]” it was more than 10 µM; in [12] it was 0.0024 µM; in [4], 7.1 µM; in the experiment “cells [5]”, 11 µM.
Regarding `COc1cc(Nc2c(C#N)cnc3cc(OCCCN4CCN(C)CC4)c(OC)cc23)c(Cl)cc1Cl` [BOSUTINIB], the figures for the half-maximal inhibitory concentration (IC50) in the experiment “cells [2]” and in the experiment “cells [5]” were 36 µM and 15 µM, respectively.
In the same order, the values of `CCOc1cc2ncc(C#N)c(Nc3ccc(F)c(Cl)c3)c2cc1NC(=O)/C=C/CN(C)C` [PELITINIB] are 1.6 µM and 0.09 µM.
Turning to `CN(C)C/C=C/C(=O)Nc1cc2c(Nc3ccc(F)c(Cl)c3)ncnc2cc1O[C@H]1CCOC1` [AFATINIB], the concentration for half-maximal inhibition (IC50) in the experiment “cells [2]” was found to be 6.4 µM; in “cells [5]”, 0.1 µM.
In the same order, the values of `COc1cc2c(Nc3ccc(Cl)c(Cl)c3F)ncnc2cc1OC[C@@H]1C[C@@H]2CN(C)C[C@@H]2C1` [TESEVATINIB] are 1.1 µM and 0.15 µM.
Take `CC(C)(C)S(=O)(=O)c1cc2c(Nc3ccc4scnc4c3)ncnc2cc1OCCO`: the IC50 in the experiment “cells [1]” is more than 50 µM; in “cells [2]”, 30 µM; in experiment [4] it was more than 50 µM; in the experiment “cells [5]” it was more than 50 µM. Besides, the inhibition in [3] turned out to be 0%.
For the compound `COc1cc(Nc2ccnc3ccc(C(F)(F)F)cc23)cc(OC)c1OC`, the half-maximal inhibitory concentration (IC50) in “cells [1]” was 21 µM; in the experiment “cells [2]” it was 33 µM; in experiment [4], more than 50 µM; in “cells [5]”, more than 50 µM. The compound also showed an Activity in experiment [14] of less than 50%.
Consider `COc1cc2ncnc(Nc3ccc(F)c(Cl)c3)c2cc1NC(=O)/C=C/CN1CCCCC1` [DACOMITINIB ANHYDROUS], for which the IC50 in the experiment “cells [2]” was found to be 2.7 µM; in “cells [5]”, 0.05 µM.
As for `COc1cc2ncnc(Nc3ccc(OCc4cccc(F)c4)c(Cl)c3)c2cc1OC`, the results for the dissociation constant (Kd) in experiment [6] and in experiment [7] were 0.0013 µM and 5 µM, respectively. The half-inhibitory concentration (IC50) in “cells [1]” was more than 10 µM; in “cells [2]”, more than 50 µM; in experiment [4] it was less than 0.015 µM; in the experiment “cells [5]”, 13 µM. The compound also came in with an inhibition in experiment [3] of 12%.
As for `CNC(=O)CN1CCC(Oc2cc3c(Nc4cccc(Cl)c4F)ncnc3cc2OC)CC1` [SAPITINIB], the half-inhibitory concentration (IC50) in “cells [2]” came out at 5.7 µM; in “cells [5]” it was 0.42 µM.
On the same counts, the results for `COc1cc2/c(=N/c3ccc(Br)cc3F)nc[nH]c2cc1OCC1CCN(C)CC1` [VANDETANIB] are 4.2 µM and 1 µM.
With `COCCOc1cc2ncnc(Nc3cc(OC)c(OC)c(OC)c3)c2cc1OCCOC`, the dissociation constant Kd in [6] was 0.053 µM; in experiment [7], 0.15 µM. Besides, the IC50 in “cells [1]” was more than 50 µM; in the experiment “cells [2]” it was more than 50 µM; in experiment [12], 2.6 µM; in [4], 2.4 µM; in “cells [5]”, 25 µM.
For `C=CC(=O)Nc1cc2c(Nc3ccc(F)c(Cl)c3)ncnc2cc1OCCCN1CCOCC1` [CANERTINIB], the half-inhibitory concentration (IC50) in “cells [2]” was 17 µM; in the experiment “cells [5]”, 0.08 µM.
In the same order, the values of `C=CC(=O)N1CCC(Oc2cc3c(Nc4ccc(Cl)c(Cl)c4F)ncnc3cc2OC)CC1` [POZIOTINIB] are 8.1 µM and 0.11 µM.
`COc1cc2ncnc(Nc3cccc(Br)c3)c2cc1OC`: the IC50 in the experiment “cells [1]” amounted to 9.7 µM; in the experiment “cells [2]”, 26 µM; in experiment [12] it was 0.26 µM; in the experiment “cells [5]”, 0.66 µM.
Regarding `C#Cc1cccc(Nc2c(C#N)cnc3cc(OC)c(OC)cc23)c1`, the dissociation constant Kd was 0.0018 µM in [6] and 0.0026 µM in [7]. Further, the IC50 in “cells [1]” is more than 50 µM; in the experiment “cells [2]”, more than 50 µM; in experiment [12] it was 0.031 µM; in experiment [4], 0.061 µM; in the experiment “cells [5]” it was 17 µM.
Consider `COc1cc2ncnc(Nc3cc(OC)c(OC)c(OC)c3)c2cc1OC`, for which the concentration for half-maximal inhibition (IC50) was 28 µM in the experiment “cells [1]”, more than 10 µM in “cells [2]”, 0.35 µM in experiment [12] and 7.3 µM in “cells [5]”. The compound also registered a Kd in experiment [7] of 0.01 µM.
In the case of `CCOc1cc2ncc(C#N)c(Nc3ccc(OCc4ccccn4)c(Cl)c3)c2cc1NC(=O)/C=C/CN(C)C` [NERATINIB], the IC50 in “cells [2]” was 2.4 µM; in “cells [5]”, 5.5 µM.
